According to PMC5698590 (British Journal of Clinical Pharmacology, 2017):
“Also recorded” adds a separate entry of the source. Where two headings read alike, the source gives them in different places. Marks after values point to notes of the source that are not given here. Blank lines part the entries; values can stand above or below the compound they belong to.

Assays:
[1] = Population pharmacokinetic modelling of DHA and piperaquine plasma concentrations in healthy Thai volunteers; type: in vivo, human; conditions: for half-life / AUC / Cmax / Tmax: both sexes, plasma, oral; for AUC: read-out: AUC (time zero to infinity), median (range); for Cmax: read-out: CMAX, median (range); for Tmax: read-out: TMAX, median (range); for MTT (mean transit time), population estimate (%RSE): oral DHA-piperaquine three tablets
Protocol: It was a descriptive pharmacokinetic-pharmacodynamic study and no formal sample size calculations were performed. […] All volunteers received primaquine alone in the first phase, followed by a washout period of 1 week. In the second and third phases, volunteers received DHA-piperaquine alone and DHA-piperaquine coadministered with primaquine at random, with an intervening washout period of 8 weeks. Study drug regimens comprised two tablets of primaquine (each tablet containing 15 mg primaquine base) and three tablets of co-formulated DHA-piperaquine (each tablet containing 40 mg DHA and 320 mg piperaquine phosphate). Study drugs were administered in the morning, 30 min after a light meal (~200 kcal and 8 g fat) with a glass of water. Venous blood samples (2 ml) were collected into fluoride-oxalate blood collection tubes. Blood samples were taken at 0 (predose), 0.25, 0.5, 1, 1.5, 2, 3, 4, 6, 8, 10, 12, and 24 h postdose. Additional blood samples were taken at days 3, 4, 7, 11, 15, 22, and 36 for piperaquine drug measurements. The exact drug administration and sampling times were recorded. Blood and plasma were separated by centrifugation at 2000 × g at 4°C for 7 min. All plasma samples were stored below -70°C and transferred on dry ice to the Department of Clinical Pharmacology, Mahidol-Oxford Tropical Medicine Research Unit (MORU), Bangkok, Thailand, for drug quantification. Plasma concentrations of DHA and piperaquine were measured using solid-phase extraction followed by liquid chromatography coupled with tandem mass spectrometry 25, 26. Quality control samples at low, middle and high concentration (5.87, 117 and 1880 ng ml^-1 for DHA and 4.50, 20.0 and 400 ng ml^-1 for piperaquine) were analysed in triplicate within each batch of study samples, to ensure the accuracy and precision of the drug assay. […] The lower limit of quantification (LLOQ) was set to be 2.00 ng ml^-1 for DHA and 1.50 ng ml^-1 for piperaquine. The laboratory is a participant in the QA/QC proficiency testing programme supported by the Worldwide Antimalarial Resistance Network 27. DHA and piperaquine plasma concentrations were transformed into their natural logarithms and analysed using a nonlinear mixed-effects modelling approach in NONMEM version 7.3 (Icon Development Solution, Ellicott City, MD, USA). […] version 2.9.0 28, Perl-speaks-NONMEM version 3.5.3 (PsN) 29 and Xpose version 4.0 30 were used for automation, model evaluation and diagnostics during the model-building process. The first-order conditional estimation method with interactions (continuous data only) or the Laplacian estimation method (a combination of continuous and categorical data) was used throughout modelling and simulation. […] Therefore, two LLOQ methods were evaluated during the model-building process 31. Data below the LLOQ were omitted (M1 method) or modelled as categorical data (M3 method). Model fitness was evaluated primarily by the objective function value (OFV; calculated by NONMEM as proportional to -2 × log-likelihood of the data). […] One-, two-, three- and four-compartment structural disposition models were evaluated for DHA and piperaquine. The best performing model was used to evaluate the absorption characteristics of DHA and piperaquine (i.e. first-order absorption with and without lag time, zero-order absorption and transit absorption). The transit compartment absorption model is a more mechanistic description of delayed absorption compared with the dichotomous properties of a lag-time model 32.

[2] = cited from earlier work
[3] = Drug-drug interaction with primaquine coadministration (stepwise and full covariate approach, bootstrap n = 1000); type: in vivo, human; conditions: for Effect of primaquine coadministration on pharmacokinetic properties: stepwise covariate approach
From the text: All continuous and categorical covariates (aspartate aminotransferase, alanine aminotransferase, alkaline phosphatase, haemoglobin, blood urea nitrogen, serum creatinine level, albumin level, primaquine coadministration and age) were investigated by using a stepwise forward inclusion (P‐value <0.05), followed by stepwise backward elimination (P‐value >0.001). A strict P‐value of 0.001 for the backward elimination was used as there were relatively few subjects in the present study 34. Gender was not evaluated as a covariate owing to the substantial imbalance between male and female subjects (five males out of 16 subjects). The effect of primaquine coadministration was also modelled separately, using a full covariate approach in which the primaquine coadministration was implemented as a categorical covariate on all pharmacokinetic parameters (except relative bioavailability owing to identifiability issues) in the final pharmacokinetic model. The full covariate models were bootstrapped (n = 1000) to determine a potentially influential drug–drug interaction on primary and secondary pharmacokinetic parameters. A primaquine‐dependent change of more than ±25% in parameter estimates was deemed a clinically relevant drug–drug interaction.

QT interval = assay: Population pharmacokinetic-pharmacodynamic model of piperaquine concentration vs double-delta-corrected QTc prolongation (12-lead ECG); type: in vivo, human
Protocol: Subjects were rested for at least 20 min before ECG measurements were taken (ECG‐1250 K, Nihon Kohden, Japan). 12‐lead ECG measurements were performed twice before drug administration, and at 1, 2, 4, 8, 12, and 24 h after each study drug administration. The ECGs were recorded at 10 mm mV^–1 sensitivity, and 25 mm s^–1 paper speed. Automatic readouts of all ECG measurements were collected but all ECGs with a reported QT interval greater than 450 ms were manually adjudicated by a research physician (unblinded) and a cardiologist (blinded). Other abnormal ECG waveforms were read by a cardiologist. Observed QT intervals were later corrected for heart rate by both the Fridericia and Bazett formulae 24. Data‐driven individual and study population correction factors were also evaluated (see section on methodology, below).
The observed QT interval must be corrected for heart rate in order to compare QT intervals between and within patients. Observed QT measurements were corrected by the traditionally used Bazett and Fridericia formulae (i.e. fixing the exponent (α) to 1/2 and 1/3, respectively, in Equation (5)). Furthermore, all observed individual QT and RR intervals from the placebo arm (i.e. primaquine‐alone arm) in a subject were used to determine the optimal individual QT correction factor (α) for each subject using ordinary least‐squares fit (Equation (5)). The calculated individual correction factor for a particular subject was then applied to all measured QT intervals for that subject, in order to generate corrected QT intervals (QTc) 24.
The appropriateness of the applied correction methods was evaluated by individual linear regression analysis of QTc vs. RR. The relationship between piperaquine drug concentrations and QRS, JT (i.e. QT – QRS) and QT intervals was evaluated with ordinary linear regression to assess the most appropriate modelling approach.
Double‐delta corrections are commonly performed to adjust for the observed circadian rhythm of ECG measurements 37. Thus, double‐delta‐corrected QTc prolongations (ΔΔQTc) were calculated by subtracting the placebo arm ΔQTc from the treatment arm ΔQTc, as in Equation (7). The primaquine‐alone arm was used as the placebo arm.
Calculated ΔΔQTc‐prolongations were used as the pharmacodynamic endpoint. Individually predicted piperaquine concentrations (CP) were obtained from imputing individual pharmacokinetic parameter estimates directly into the pharmacodynamic model. The relationship between drug exposure and QT prolongation was evaluated initially by a linear direct‐response pharmacodynamic model, as in Equation (8).
(8) ΔΔQTc=θ1+η1+θ2×CPt+εi where θ1 represents the typical baseline ΔΔQTc prolongation, η1 is the normally distributed between‐subject variability, θ2 is the slope of the exposure–response relationship and εi is the normally distributed residual error. Different exposure–response relationships (i.e. power model and EMAX model) were also investigated during the model development process. Hysteresis was investigated to account for a possible delayed exposure–response relationship (i.e. turn‐over and link models).
Age, gender, electrolyte levels (i.e. potassium and sodium) at admission and concomitant primaquine administration were evaluated as linear covariates on the piperaquine‐related ΔΔQTc prolongation, using a stepwise addition–deletion approach (as described above). Model evaluation and diagnostics were performed in the same manner as for the pharmacokinetic modelling approach.

[4] = human, with primaquine, Bayesian post hoc estimates
[5] = human, with primaquine, Bayesian post hoc estimates, read-out: t1/2 (terminal half-life), median (range) (converted)
[6] = human, without primaquine, Bayesian post hoc estimates
[7] = human, without primaquine, Bayesian post hoc estimates, read-out: t1/2 (terminal half-life), median (range) (converted)
[8] = healthy volunteers, typical individual 64 kg
[9] = healthy volunteers, typical individual 64 kg, two-compartment model
[10] = F fixed to 100% for the population
[11] = healthy volunteers, typical individual 64 kg, three-compartment model
[12] = full covariate approach, 95% CI included zero effect

- half-life ([1]; human, three-compartment model, not carried forward, read-out: Median terminal half-life from the three-compartment model (converted)): 3.11 h
- AUC [1, 4]: 798 ng·h/mL
- Cmax [1, 4]: 357 ng/mL
- Tmax [1, 4]: 1.27 h
- half-life [1, 5]: 2.2 h
- AUC [1, 6]: 767 ng·h/mL
- Cmax [1, 6]: 361 ng/mL
- Tmax [1, 6]: 1.3 h
- half-life [1, 7]: 2.2 h
- MTT (mean transit time), population estimate (%RSE) [1, 8]: 0.567 (11.4%) h
- CL/F (oral clearance), population estimate (%RSE) [1, 8]: 148 (10.6%) l h^-1
- VC/F (apparent central volume of distribution), population estimate (%RSE) [1, 8]: 214 (16.9%) l
- ka (absorption rate constant from last transit compartment to central compartment), population estimate (%RSE) [1, 8]: 2.89 (37.1%) h^-1
- QP/F (inter-compartment clearance), population estimate (%RSE) [1, 9]: 28.5 (26.0%) l h^-1
- VP/F (apparent peripheral volume of distribution), population estimate (%RSE) [1, 9]: 65.9 (19.1%) l
- Between-occasion variability of ka, %CV (%RSE) ([1]; human, in vivo): 89.0% (23.7%) ^*
- Between-occasion variability of ka, %CV (%RSE) ([1]; human, in vivo, listed as DHA): 89.0%
SMILES: C[C@H]1[C@@H](O)O[C@@H]2O[C@@]3(C)CC[C@H]4[C@H](C)CC[C@@H]1[C@@]24OO3 [dihydroartemisinin]
- Elimination half-life [2]: 1 to 2 h
- Terminal half-life in previous reports [2]: 8.7 to 150 min
- Effect of primaquine coadministration on pharmacokinetic properties ([3]; listed as DHA): did not affect the pharmacokinetic properties; also recorded: did not have a significant impact

SMILES: COc1cc(NC(C)CCCN)c2ncccc2c1 (centres unmarked) [primaquine]
- Relationship between ΔQTc and primaquine concentrations (QT interval; primaquine-alone arm, 30 mg base, ordinary linear regression): no correlation; also recorded: no impact on ventricular repolarization
- Effect of primaquine on the piperaquine exposure-QTc prolongation relationship (QT interval; stepwise covariate approach): did not affect the relationship

- Between-occasion variability of F (relative bioavailability), %CV (%RSE) [1, 10]: 19.1% (13.3%) ^*
- Between-subject variability of F (relative bioavailability), %CV (%RSE) [1, 10]: 17.9% (34.0%)
- Cmax [1, 4]: 300 ng/mL
- Tmax [1, 4]: 3.98 h
- half-life [1, 5]: 530 h
- Cmax [1, 6]: 332 ng/mL
- Tmax [1, 6]: 3.76 h
- half-life [1, 7]: 530 h
- MTT (mean transit time), population estimate (%RSE) [1, 8]: 3.13 (9.42%) h
- CL/F (oral clearance), population estimate (%RSE) [1, 8]: 27.4 (5.50%) l h^-1
- VC/F (apparent central volume of distribution), population estimate (%RSE) [1, 8]: 751 (23.5%) l
- QP1/F (inter-compartment clearance), population estimate (%RSE) [1, 11]: 206 (9.56%) l h^-1
- QP2/F (inter-compartment clearance), population estimate (%RSE) [1, 11]: 71.5 (9.01%) l h^-1
- VP1/F (apparent peripheral volume of distribution), population estimate (%RSE) [1, 11]: 1900 (8.23%) l
- Between-occasion variability of MTT, %CV (%RSE) ([1]; human, in vivo): 32.2% (13.4%) ^*
- Between-subject variability of CL/F, %CV (%RSE) ([1]; human, in vivo): 10.9% (37.2%)
- Between-subject variability of QP2/F, %CV (%RSE) ([1]; human, in vivo): 24.1% (36.3%)
- Between-subject variability of VC/F, %CV (%RSE) ([1]; human, in vivo): 42.4% (40.9%)
- Variability in the absorption characteristics ([1]; human, in vivo): below 35%
- Day 7 conc., median (range) ([1]; with primaquine, Bayesian post hoc estimates): 16.7 (13.8–28.9) ng ml^-1
- Day 7 conc., median (range) ([1]; without primaquine, Bayesian post hoc estimates): 18.3 (10.5–34.9) ng ml^-1
- Median decrease in central volume of distribution during concomitant primaquine [3, 12]: 37.3% (95% CI −67.6%, 33.7%)
- Median increase in mean transit absorption time during concomitant primaquine [3, 12]: 26.8% (95% CI −21.2%, 62.5%)
SMILES: Clc1ccc2c(N3CCN(CCCN4CCN(c5ccnc6cc(Cl)ccc56)CC4)CC3)ccnc2c1 [piperaquine]
- SLOPE (slope of the relationship between piperaquine concentration and ΔΔQTc prolongation), population estimate (%RSE) (QT interval; linear direct-response model, healthy volunteers): 0.0417 (12.5%) ms (ng ml^-1)^-1
- Relationship between piperaquine drug concentrations and ΔQRS (QT interval; ordinary linear regression, P = 0.520): no significant relationship
- Population mean increase in ΔΔQTc (QT interval) per 100 ng ml^-1 increase in piperaquine plasma concentration (QT interval; per 100 ng ml^-1, individually corrected QT, healthy volunteers): 4.17 ms
- Terminal elimination half-life ([2]; introduction): 480 to 720 h
- Increase in piperaquine trough concentrations at week 36 compared with week 4 ([2]; repeated bimonthly treatment doses): 267% (range 146–381%)
- Increase in piperaquine trough concentrations at week 36 compared with week 4 ([2]; repeated monthly treatment doses): 336% (range 271–402%)
- Median maximum piperaquine concentration ([2]; standard 3-day regimen of 50 mg kg^-1, pregnant and nonpregnant women with uncomplicated P. falciparum malaria): 244 ng/mL
- Effect of primaquine coadministration on pharmacokinetic properties [3]: did not affect the pharmacokinetic properties; also recorded: did not have a significant impact
